Paper PMC6788984, “High-potency ligands for DREADD imaging and activation in rodents and monkeys” (Nature Communications, 2019)
“And” between values parts separate entries of the source, which are not always exact repeats. Identical values can stand only once.

Experiments:
[1] = Radiometabolite analysis of [18F]JHU37107 in monkey plasma / whole blood (radio-HPLC); assay type: in vivo, rhesus monkey (Macaca mulatta)
Experimental: To determine the arterial input function for the radiotracers injected in rhesus monkeys radioligand concentrations in the arterial plasma were corrected by the unchanged parent fraction. […] Blood samples were immediately sampled for gamma counting, and plasma harvested by centrifugation for gamma counting and radio-HPLC analysis. The unchanged plasma parent fractions were determined by radio-HPLC on an X-terra® C18 column (10 µm, 7.8 mm × 300 mm, Waters Corp., Milford, MA), and eluted with MeOH:H2O:Et3N (80:20:0.1; by volume) at an isocratic flow rate of 4.0 mL min^−1. Eluates were monitored with an in-line flow-through NaI(Tl) scintillation detector (Bioscan). Data were stored and analyzed on a PC using the software “Bio-ChromeLite”. The collection of data for each radiochromatogram was decay corrected according to its respective HPLC injection time. Plasma free fraction was determined according to our previous methods.

hM4Di [2] = biological target: T1, hM4Di (Homo sapiens, UniProt P08173, A203G/Y113C); test: [18F]JHU37107 PET in a monkey expressing hM4Di in the right amygdala; assay type: in vivo, rhesus monkey (Macaca mulatta); parameters: expressed in transfected cells; host or cells: rhesus monkey (Macaca mulatta) right amygdala, lentivirus-transduced neurons
T1 sequence (P08173 1-479 Y113C/A203G): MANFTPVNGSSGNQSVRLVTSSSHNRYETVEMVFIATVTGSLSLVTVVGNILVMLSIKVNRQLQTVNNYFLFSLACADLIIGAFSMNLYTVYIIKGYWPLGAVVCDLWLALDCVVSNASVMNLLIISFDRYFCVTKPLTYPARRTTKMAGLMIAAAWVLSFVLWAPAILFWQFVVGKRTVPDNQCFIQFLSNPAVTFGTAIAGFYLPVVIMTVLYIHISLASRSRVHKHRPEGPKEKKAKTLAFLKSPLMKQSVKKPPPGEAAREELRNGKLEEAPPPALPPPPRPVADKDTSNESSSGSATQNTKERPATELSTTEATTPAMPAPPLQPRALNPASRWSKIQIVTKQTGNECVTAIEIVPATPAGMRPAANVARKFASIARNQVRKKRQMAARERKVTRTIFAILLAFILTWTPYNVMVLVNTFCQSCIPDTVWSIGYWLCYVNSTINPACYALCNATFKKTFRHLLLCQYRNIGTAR
Experimental: Lentivirus expressing an hM4Di-CFP fusion protein under an hSyn promoter[11] with a titer of >10^9 infectious particles was loaded into a 100 µL glass syringe (Hamilton Co., MA). The 31-gauge needle of the syringe was sheathed with a silica capillary (450 µm OD) to create a step 1 mm from the base of the aperture. The syringe was mounted in a Nanomite pump (Harvard Apparatus, Cambridge, MA). The needle was lowered through the incision in the dura mater to each of the pre-calculated target sites and 10 or 20 µL was infused at a rate of 1 µL min^−1. Each monkey received a total of between 10 and 12 injections (for a total injection volume of 120–240 µL). Post-infusion, the needle was left in situ for 10 min after each injection to allow pressure from the infusate to dissipate. The needle was then slowly removed. At the completion of the injection series the soft tissues were sutured together in anatomical layers.
(§1) [^18F]JHU37107 was prepared via the no-carrier-added ^18F-fluorination using an FDG Nuclear Interface module (Muenster, Germany). Briefly, 4 mg precursor (8-chloro-11-(4-ethylpiperazin-1-yl)-5H-dibenzo[b,e][1,4]diazepin-2-ol) and 8 mg tris(acetonitrile)cyclopentadienylruthenium(II)hexafluorophosphate (STREM, Boston, MA) were dissolved in ethanol (0.3 mL), the solution was heated at 85 °C for 25 min and evaporated to dryness under a stream of argon gas. The residue was dissolved in DMSO (0.5 mL) and acetonitrile (0.5 mL) and the solution was added to a dry complex of [^18F]fluoride and 9 mg 1,3-bis(2,6-di-i-propylphenyl)-2-chloroimidazolium chloride (STREM). The reaction mixture was heated at 130 °C for 30 min, diluted with mixture of 0.5 mL acetonitrile, 0.5 mL water and 0.03 mL TFA and injected onto a semi-preparative HPLC column (Luna C18, 10 micron, 10 mm × 250 mm) and eluted with 23:77 (v:v) acetonitrile:water (0.1% trifluoroacetic acid) at a flow rate of 10 mL min^−1. The radioactive peak corresponding to [^18F]JHU37107 (tR = 9.9 min) was collected in a reservoir containing 50 mL of water and 3 mL aq 8.4% NaHCO3 solution. The diluted product was loaded onto a solid phase extraction cartridge (Waters Oasis HLB plus light) and rinsed with 10 mL sterile saline. The product was eluted with 1000 µL of ethanol through a sterile 0.2 μm filter into a sterile, pyrogen-free vial and 10 mL saline was added through the same filter. The final product [^18F]JHU37107 was then analyzed by analytical HPLC (Luna C18, 10 micron, 4.6 mm × 250 mm; mobile phase 23:77 (v:v) acetonitrile:water (0.1% trifluoroacetic acid), flow rate of 3 mL min^−1; tR = 6.4 min) using a UV detector at 254 nm to determine the radiochemical purity (>95%) and specific radioactivity (152–188 GBq μmol^−1 (4100–5070 mCi μmol^−1)) at the time synthesis ended.
All macaque studies were acquired dynamically on the Focus 220 PET scanner (Siemens Medical Solutions, Knoxville, TN). The Focus 220 is a dedicated pre-clinical scanner with a transaxial FOV of 19 cm and an axial FOV of 7.5 cm. Image resolution is <2 mm within the central 5 cm FOV.
After initial evaluation the monkey was sedated with ketamine (10 mg kg^−1) followed by ketoprofen (as an analgesic) and glycopyrrolate (for salvia reduction), all weight dependent IM injections. The monkey would then be placed in the supine position, intubated with a tracheal tube. […] The monkey was always monitored while anesthetized. […]

hM4Di [3] = biological target: T1, hM4Di; test: [18F]JHU37107 PET in rats expressing hM3Dq or hM4Di in the right motor cortex; assay type: in vivo, rat; parameters: expressed in transfected cells; host or cells: rat right motor cortex, AAV-transduced neurons; conditions: unilateral hM4Di in right motor cortex
Experimental: as §1, with “The radioactive peak corresponding to [^18F]JHU37107 (tR = 9.9 min) was collected in a reservoir containing 50 mL of water and 3 mL aq 8.4% NaHCO3 solution. The diluted product was loaded onto a solid phase extraction cartridge (Waters Oasis HLB plus light) and rinsed with 10 mL sterile saline. The product was eluted with 1000 µL of ethanol through a sterile 0.2 μm filter into a sterile, pyrogen-free vial and 10 mL saline was added through the same filter.” left out, “ended. […]” for “ended.”

P-gp = biological target: T2, P-gp (Homo sapiens, UniProt P08183); test: P-glycoprotein (P-gp) substrate assay in Caco-2 cells with and without verapamil; assay type: in vitro ADME; conditions: Caco-2, efflux ratio with/without verapamil
T2 construct: host or cells: Caco-2
Experimental: These experiments were performed by an outside vendor (Eurofins, France). C21 was tested in P-gp substrate assessment assays at 10 µM. The A to B and B to A permeability was measured in Caco-2 cells in the presence and absence of verapamil, a P-gp inhibitor. Efflux ratios (E) were calculated based on the apparent B–A and A–B permeability with and without verapamil. In each experiment, the respective reference compound was tested concurrently with the test compound to assess the assay reliability. Fluorescein was used as the cell monolayer integrity marker. Fluorescein permeability assessment (in the A–B direction at pH 7.4 on both sides) was performed after the permeability assay for the test compound.

[4] = system: untransfected HEK-293 cells; test: Negative controls of the functional assays: HEK-293 cells without DREADD; assay type: cell-based, human
Experimental: BRET assays were performed to detect receptor ligand-induced Gαo1 protein activation. […] Forty-eight hour after transfection cells were harvested, washed and resuspended in phosphate-buffered saline (PBS). Approximately, 200,000 cells/well were distributed in 96-well plates, and 5 µM Coelenterazine H (substrate for luciferase) was added to each well. Five minutes after addition of Coelenterazine H, ligands were added to each well. The fluorescence of the acceptor was quantified (excitation at 500 nm and emission at 540 nm for 1-s recordings) in a PheraStar FSX plate reader (BMG Labtech) to confirm the constant expression levels across experiments. In parallel, the BRET signal from the same batch of cells was determined as the ratio of the light emitted by mVenus (510–540 nm) over that emitted by RLuc (485 nm). Results were calculated for the BRET change (BRET ratio for the corresponding drug minus BRET ratio in the absence of the drug) 5 min after the addition of the ligands.
Intracellular Ca^2+ concentration was monitored using the fluorescent Ca^2+ biosensor GCaMP6f. HEK-293 cells were transfected with 7 µg/dish of the cDNA encoding for hM3Dq (Addgene #89149) or hM4Di (Addgene #89150) and 7 µg/dish of GCaMP6. Forty-eight hours after transfection, cells were harvested, washed, resuspended in Mg^2+-free Locke’s buffer pH 7.4 (154 mM NaCl, 5.6 mM KCl, 3.6 mM NaHCO3, 2.3 mM CaCl2, and 5 mM HEPES) containing 5.6 mM of glucose and approximately 200,000 cells/well were distributed in black 96-well plates. Increasing concentrations of the indicated compound were added to the cells and fluorescence intensity (excitation at 480 nm, emission at 530 nm) was measured at 18-s intervals during 250 s using a PHERAstar FSX (BMG Labtech). The net change in intracellular Ca^2+ concentration was expressed as F − F0 where F is the fluorescence at a given concentration of ligand and F0 is the average of the baseline values (fluorescence values of buffer-treated wells).

hM4Di [5] = biological target: T1, hM4Di; test: [35S]GTPgammaS autoradiography in rat brain sections expressing hM4Di; assay type: biochemical; parameters: expressed in transfected cells; host or cells: rat right motor cortex, AAV-transduced neurons; conditions: 10 nM
Experimental: Sections were encircled with a hydrophobic membrane using a PAP pen (Sigma-Aldrich). Preincubation buffer was pipetted onto each slide and allowed to incubate for 20 min (50 mM Tris-HCl, 1 mM EDTA, 5 mM MgCl2 and 100 mM NaCl). The preincubation buffer was removed via aspiration and each slide was loaded with GDP in the presence of DPCPX and allowed to incubate of 60 min (Preincubation buffer, 2 mM GDP, 1 μM DPCPX, Millipore water). […] The [^35S]GTPγS cocktail was removed via aspiration and slides were washed in ice-cold washing buffer (50 mM Tris-HCl, 5 mM MgCl2, pH 7.4) for 5 min (2×) followed by a 30 s dip in ice-cold deionized water. Hydrophobic membrane was removed with a cotton swab and xylene and slides were placed into a […] covered by a BAS-SR2040 phosphor screen (FujiFilm; GE Healthcare). The slides were exposed to the phosphor screen for 3-5 days and imaged using a phosphor imager (Typhoon FLA 7000; GE Healthcare).

[6] = system: mu, kappa, and delta opioid receptors; test: Binding and enzyme target profile screen (Eurofins); conditions: competitive binding screen, 10 uM
Experimental: These experiments were performed by an outside vendor (Eurofins, France). […] In each experiment, the respective reference compound was tested concurrently with the test compound to assess the assay reliability. […] Following incubation, the samples were filtered rapidly under vacuum through glass fiber filters presoaked in a buffer and rinsed several times with an ice-cold buffer using a 48-sample or 96-sample cell harvester. The filters were counted for radioactivity in a scintillation counter using a scintillation cocktail.

WT mice = test: [18F]FDG PET metabolic mapping in WT mice; assay type: in vivo, mouse; conditions: 0.1 mg/kg
Experimental: Mice (D1-hM3Dq, D1-hM4Di or WT littermates, see above) were habituated to experimenter handling and fasted 16 h before the experiment. On the day of the experiment, mice received an IP injection of vehicle (1 ml kg^−1) and were placed back into their home cages. Ten minutes later, mice were injected (IP) with 11 MBq of 2-deoxy-2-[^18F]fluoro-D-glucose (FDG, Cardinal Health) and placed back into their home cages. After 30 min, mice were anesthetized with 1.5% isoflurane, placed on a custom-made bed of a nanoScan small animal PET/CT scanner (Mediso Medical Imaging Systems) and scanned for 20 min on a static acquisition protocol, followed by a CT scan. […] Voxel-based repeated measures with Student’s t test comparing baseline to drug were performed, and the resulting parametric images were filtered for statistically significant (p < 0.05) clusters larger than 100 contiguous voxels. All statistical parametric mapping analyses were performed using Matlab R2016 (Mathworks) and SPM12 (University College London).

hM4Di [7] = biological target: T1, hM4Di; test: Autoradiography: direct binding of [3H]clozapine, [3H]C21, [3H]C13 in monkey brain sections expressing hM4Di; parameters: expressed in transfected cells; host or cells: rhesus monkey (Macaca mulatta) right amygdala, lentivirus-transduced neurons; species or system rhesus monkey (Macaca mulatta); unit not given here; conditions: Fig. 1 panel H; [3H]-labelled ligand; individual values; listed as CLZ
Excerpt: Flash frozen tissue (both rodents and the monkey) was sectioned (20 µm) on a cryostat (Leica, Germany) and thaw mounted onto ethanol-washed glass slides. […] Slides were air dried and placed in a Hypercassette™ (Amersham Biosciences) and covered with a BAS-TR2025 Storage Phosphor Screen (FujiFilm, Japan). The slides were exposed to the screen for 5–7 days and imaged using a phosphor imager (Typhoon FLA 7000; GE Healthcare).

T2 sequence (P08183 whole entry): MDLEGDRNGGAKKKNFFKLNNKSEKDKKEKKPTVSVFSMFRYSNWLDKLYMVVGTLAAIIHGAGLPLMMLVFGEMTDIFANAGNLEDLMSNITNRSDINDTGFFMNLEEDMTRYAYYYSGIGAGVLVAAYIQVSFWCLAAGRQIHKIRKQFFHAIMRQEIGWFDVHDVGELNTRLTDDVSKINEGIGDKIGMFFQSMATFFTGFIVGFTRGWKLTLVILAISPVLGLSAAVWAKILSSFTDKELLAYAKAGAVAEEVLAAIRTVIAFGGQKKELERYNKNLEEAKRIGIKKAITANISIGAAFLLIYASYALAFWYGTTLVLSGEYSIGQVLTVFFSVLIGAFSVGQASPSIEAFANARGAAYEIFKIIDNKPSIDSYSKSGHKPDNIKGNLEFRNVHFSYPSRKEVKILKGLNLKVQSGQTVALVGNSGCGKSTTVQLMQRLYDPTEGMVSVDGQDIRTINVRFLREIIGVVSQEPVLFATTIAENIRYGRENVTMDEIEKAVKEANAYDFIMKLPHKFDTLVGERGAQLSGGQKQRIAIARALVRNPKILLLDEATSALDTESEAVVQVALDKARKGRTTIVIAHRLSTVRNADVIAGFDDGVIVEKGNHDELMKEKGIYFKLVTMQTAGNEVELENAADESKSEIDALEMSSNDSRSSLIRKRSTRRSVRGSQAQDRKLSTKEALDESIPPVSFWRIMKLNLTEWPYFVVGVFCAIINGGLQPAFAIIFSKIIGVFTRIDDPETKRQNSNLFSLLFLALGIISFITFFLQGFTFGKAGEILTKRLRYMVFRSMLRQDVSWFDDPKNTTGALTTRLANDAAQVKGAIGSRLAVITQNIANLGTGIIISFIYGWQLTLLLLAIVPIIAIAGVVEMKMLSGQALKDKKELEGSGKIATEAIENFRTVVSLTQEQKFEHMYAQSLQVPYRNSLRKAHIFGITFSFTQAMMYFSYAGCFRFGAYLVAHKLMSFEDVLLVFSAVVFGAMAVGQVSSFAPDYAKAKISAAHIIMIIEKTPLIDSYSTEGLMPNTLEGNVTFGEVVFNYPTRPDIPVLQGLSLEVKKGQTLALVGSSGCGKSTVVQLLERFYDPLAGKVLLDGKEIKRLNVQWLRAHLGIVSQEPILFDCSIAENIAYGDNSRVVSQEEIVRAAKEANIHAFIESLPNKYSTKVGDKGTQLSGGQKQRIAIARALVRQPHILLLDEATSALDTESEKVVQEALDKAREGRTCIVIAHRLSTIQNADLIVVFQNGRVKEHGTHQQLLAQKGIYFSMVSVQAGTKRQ

binding to opioid receptors [6]	SMILES	parent radioactivity composition of plasma ([1]; in vitro monkey whole blood, 30 min incubation at room temperature) [%]	parent radioactivity composition of plasma ([1]; monkey plasma, 30 min after IV administration) [%]	parent radioactivity composition of plasma ([1]; monkey plasma, 180 min after IV administration) [%]	pharmacokinetic properties (hM4Di [2])	PET labelling of hM4Di (hM4Di [2]; hM4Di in right amygdala)	PET visualization of hM4Di (hM4Di [3])	P-gp substrate (P-gp)	functional response in HEK-293 cells lacking DREADDs [4]	functional response, BRET (Go-alpha-Rluc8, beta1, gamma2-mVenus), no DREADD ([4]; HEK-293 cells)	functional response, GCaMP6f, no DREADD ([4]; HEK-293 cells)	hM4Di activation measured as [35S]GTPgammaS binding (hM4Di [5])	brain metabolic activity ([18F]FDG) (WT mice)	brain metabolic activity ([18F]FDG) (WT mice; listed as CLZ)	tritiated ligand binding in brain tissue, CPu (hM4Di [7])	tritiated ligand binding in brain tissue, CTX (hM4Di [7])	tritiated ligand binding in brain tissue, hM4Di (hM4Di [7])
	CCN1CCN(C2=Nc3cc(Cl)ccc3Nc3ccc([18F])cc32)CC1 [[^18F]JHU37107]	49.7	56	24.2	favorable pharmacokinetic properties	able to directly label hM4Di receptors	permitted hM4Di visualization in both the AAV injection site as well as at known proximal and distal anatomical projection sites										
does not	CN1CCN(C2=Nc3cc(Cl)ccc3Nc3ccccc32)CC1 [clozapine]							none of these compounds is a substrate for P-gp	Neither clozapine nor C21 produced detectable functional responses	did not show any functional response	did not show any functional response	induces significantly greater hM4Di activation	did not produce any significant changes in brain glucose metabolism	did not show any significant changes in brain metabolic activity	109.018 and 115.173 and 108.688 and 86.4656 and 88.6824 and 91.973	88.2005 and 122.029 and 119.221 and 97.205 and 89.8389 and 100.22	176.387 and 144.183 and 141.333 and 201.955 and 168.154 and 164.257
